Test results published in patent US9420790B2, “Molecules that induce disease resistance and improve growth in plants” (The Regents of the University of California, priority 2013, dated 2016).
Entries after “also recorded” stand apart in the source; their conditions may differ.

Tests used:
[1] = test system: CaBP22^−333::GUS expression; assay: CaBP22-333::GUS reporter assay, liquid-grown seedlings (saturation treatment); format: in vivo, Arabidopsis thaliana
Procedure: (§1) B. Trypan blue staining of CaBP22^−333 : :GUS seedlings incubated for 24 h in medium containing compounds at the indicated concentrations.
(§2) To quantify the bioactivity of HTC, we performed various assays with one week-old CaBP22^−333::GUS seedlings submerged in liquid growth medium containing HTC or mock-solution (saturation treatment). […] To examine if HTC induces phytotoxicity, we stained Col-0 seedlings after saturation treatment with trypan blue.
(§3) To determine which substituents or moieties of the HTC molecule are critical for its defense-inducing activity, seven commercially available HTC analogs were analyzed (FIG. 3A). We compared the ability of these compounds to induce GUS expression in saturation treated CaBP22^−333::GUS Arabidopsis seedlings to that of DCA and HTC. […] We also used trypan blue staining to examine HTC-analog-induced phytotoxicity.

[2] = test system: Peronospora isolate Noco2; assay: Noco2 spore inhibition assay in soil-grown seedlings; format: in vivo, Hyaloperonospora arabidopsidis; details: for level of protection / defense-inducing activity against Noco2 / concentration giving significant protection against Noco2: dose-response; for level of protection / defense-inducing activity against Noco2: three-week old Col-0 (FIG. 3B); for concentration giving significant protection against Noco2: three-week old Col-0, infected 24 h after treatment, 7 dpi (FIG. 3B); for resistance to Noco2: 100 μM sprayed 1 h prior to pathogen challenge; for suppression of Noco2 spore formation / resistance to Noco2: 7 dpi; for HTC-triggered immunity to Noco2: 100 μM
Procedure: FIG. 2. Kinetic analysis of chemically-induced disease resistance. Experiments were conducted with three-week-old soil-grown Col-0 seedlings sprayed with 100 μM HTC, DCA, INA, or mock solution (1% DMSO) at the indicated times prior to being sprayed with 2×10^4 mL^−1Noco2 spores (2 ml per pot). Peronospora (Hyeloperonospora arabidopsidis) spores were counted 7 dpi (days post-infection). Mean and SE values were calculated from a minimum of three biological replicates and the average of those is shown above.
FIG. 3. Structure-activity analysis of HTC analogs. A. Chemical structures of DCA, HTC and tested HTC analogs. Chiral centers of the HTC skeleton are indicated by “1*” and “2*” in HTC. B. Noco2 spore inhibition assay. Three-week-old soil-grown Col-0 seedlings were spray-infected 24 h after treating with varying concentrations of each synthetic elicitor and then assayed at 7 dpi for spore growth. 100% inhibition=0 spores. […] The average of those three replicates is shown. Significant differences of compound-treated compared to mock-treated seedlings determined by Student's t-tests (p<0.05) are marked by colored four pointed stars.
(§4) FIG. 4. Analysis of HTC activity in defense mutant plants. A & B. RT-PCR analysis of CaBP22 transcript levels in Col-0 (wild-type) and mutant backgrounds 24 h after spraying 2-week-old seedlings with mock-solution (1% DMSO), 100 μM DCA, or HTC. RT-PCRs with ACTIN are shown as loading controls. […] C. Analysis of HTC activity in Col-0 or nahG background. Experiments were conducted with three-week-old soil-grown Col-0 or nahG seedlings sprayed with 100 μM HTC, 100 μM DCA, or mock-solution (1% DMSO) 24 h prior to infection with 2×10^4 virulent Noco2 spores ml^−1 (2 ml per pot). Spores were counted at 7 dpi. Mean and SE values were calculated from a minimum of three biological replicates and their averages of are shown.
We next tested whether HTC could induce pathogen resistance in soil-grown plants. […] To determine if HTC differs from other synthetic elicitors in the kinetics of defense induction, Col-0 seedlings were sprayed with 100 μM of INA, DCA, HTC, or mock, 1 h, 3 h, 1 d, 3 d, or 6 d prior to pathogen challenge.
We performed a dose-response analysis of inhibition of Noco2 spore development in three-week old Col-0 plants using the HTC analogs (FIG. 3B).
We also compared the biological activity of s-HTC to that of p-HTC by spraying a concentration gradient of both preparations on soil-grown Col-0 seedlings 24 h prior to challenge with Noco2.

Arabidopsis roots = assay: Root length of Col-0 seedlings on 1/2 MS plates containing synthetic elicitor; format: in vivo, Arabidopsis thaliana; details: for enhancement of root length / root growth: HTC at 1 μM only, DCA and INA at various tested concentrations; for root growth at higher concentrations: higher doses, range tested 1 to 100 μM
Procedure: FIG. 5. Relative root length of Col-0 plants grown on synthetic elicitors. Col-0 seedlings were plated in square petri dishes on ½ MS medium containing 1, 10, 25, 50, 75 or 100 μM of HTC, DCA, INA, or the respective controls (solvent only). A. Roots of Col-0 seedlings grown on 1 uM HTC or control (0.01% DMSO) medium 14 days after germination. B. Average percent Col-0 root length grown on synthetic elicitors compared to Col-0 grown on control. Root length was measured at day 3, 5, 7, 11, and 14. Results are expressed as percentages of the average root length on the respective synthetic elicitor treatments compared to their controls. The average, standard error, and Student's t-test (p<0.05) were calculated from these values. Significant differences between synthetic elicitor-treated and control-treated plants are marked by a star above the corresponding data point. Y-axis represents relative root growth in the presence of synthetic elicitor. CSE: concentration of synthetic elicitor; dpg: days post germination.
We compared the ability of other synthetic elicitors to enhance growth, and performed root growth assays with INA, DCA, and HTC (FIG. 5B). Each synthetic elicitor was added to the solid media plates at concentrations ranging from 1 to 100 μM. The plates were placed upright in a growth chamber, and root lengths were measured at 3 d-intervals. To merge data sets, root length was expressed as a percentage of their value relative to the average of the mock (control) for that data set. Normalizing each root length to its control allowed all replicates to be combined together to calculate averages, standard errors, and perform statistical tests (FIG. 5B).

[3] = test system: Hyaloperonospora arabidopsidis (Peronospora); details: Arabidopsis; cited from earlier work
CaBP22 transcript levels = assay: RT-PCR analysis of CaBP22 transcript levels in Col-0 and defense mutants; format: in vivo, Arabidopsis thaliana; details: for ability to induce CaBP22 expression: transgenic nahG line; for ability to induce CaBP22 expression / CaBP22 transcript accumulation: 100 μM
Procedure: as §4
To establish the mode-of-action of HTC, we performed reverse transcription (RT)-PCRs examining transcript levels of the defense marker gene CaBP22 in Col-0 and a set of mutant lines representing various defense signaling mechanisms. […] In the transgenic nahG line, which is compromised in the accumulation of salicylic acid (SA), the ability of HTC to induce CaBP22 expression was blocked, while that of DCA was not affected (FIGS. 4A and B).

Pseudomonas syringae = details: Arabidopsis; cited from earlier work
Col-0 seedlings [4] = assay: Trypan blue staining for phytotoxicity (cell death) after saturation treatment; format: in vivo, Arabidopsis thaliana; details: for seedlings with cell death (trypan blue staining): treated for 24 h at 300 μM
Procedure: as §1, §2, §3

[5] = test system: Tomato cv. Moneymaker seedlings; assay: Root length of plate-grown tomato seedlings; format: in vivo, Solanum lycopersicum; details: 1 μM
Procedure: (§5) FIG. 7. Relative root length and FW of tomato seedlings and shoots. Tomato cv. Moneymaker seedlings treated with HTC compared to seedlings treated with control (DMSO 0.01%). A. Moneymaker seedlings were plated in square petri dishes on ½ MS medium containing HTC. Root length was measured at day 2, 4, 6, and 8. Results are expressed as percentages of the average root length on 1 μM HTC or control. The average, standard error, and Student's t-test (p<0.05) were calculated from these values. Each time point represents at least 89 distinct root length measurements from at least three biological replicates. Y-axis represents percent of root growth in the presence of synthetic elicitor compared to controls. B. Moneymaker seeds (five seeds per pot with a minimum of 21 pots) were sown on soil drenched with 20 ml of the indicated concentrations of HTC or their respective control. Fresh weight (FW) of the above-ground plant tissues was measured at day 14. Results are expressed as percentages of the average weight of HTC treatments compared to those of the controls. The standard error and Student's t-test (p<0.01) were calculated from at least three biological replicates and the average is shown above. Significant differences between synthetic elicitor-treated and control-treated plants are marked by stars above the corresponding data points. […]

[6] = test system: Tomato cv. Moneymaker seedlings; assay: Root drench assay, aerial fresh weight of soil-grown tomato; format: in vivo, Solanum lycopersicum; details: 10 μM single soil drench, day 14
Procedure: as §5

Col-0 seedlings [7] = assay: Fresh weight of aerial portions of soil-drenched Col-0 seedlings; format: in vivo, Arabidopsis thaliana; details: 1-100 μM soil drench, day 14
Procedure: FIG. 6. Relative weight of aerial portions of synthetic elicitor treated Col-0 seedlings compared to control (DMSO) treated seedlings. Col-0 seeds (15-20 seeds per pot) were sown on soil drenched with 20 mL of the indicated concentrations of HTC, INA, DCA, or the respective mock solutions. Fresh weight (FW) of the above-ground plant tissues was measured at day 14. Results are expressed as percentages of the average FW of the respective synthetic elicitor treated plants compared to that of mock-treated controls. The standard error and Student's t-test (p<0.05) were calculated from at least three biological replicates and averages are shown. Significant differences between synthetic elicitor-treated and control-treated plants are marked by a star above the corresponding data point. Y-axis represents percent of FW in the presence of synthetic elicitor compared to controls.
To determine whether the synthetic […] could increase the aerial weight of Arabidopsis, soil-sown-seedlings were drenched with synthetic elicitor in water at day 0 (FIG. 6). After 14 days, aerial portions of plants were cut off and their fresh weight measured. […] HTC thus has a hormesis-like effect in Arabidopsis roots, but generally increases the aerial fresh weight of Arabidopsis at the concentrations tested.

[8] = Col-0, 24 h after spraying 100 μM
[9] = wrky70-3 mutant, 24 h after spraying 100 μM
[10] = Col-0, 100 μM sprayed 24 h prior to infection
[11] = nahG, 100 μM sprayed 24 h prior to infection

Row | SMILES | level of protection / defense-inducing activity against Noco2 [2] | concentration giving significant protection against Noco2 [2] | resistance to Noco2 [2] | enhancement of root length / root growth (Arabidopsis roots) | root growth at higher concentrations (Arabidopsis roots) | CaBP22 transcript levels (CaBP22 transcript levels; [8]) | ability to induce CaBP22 expression (CaBP22 transcript levels) | CaBP22 transcript levels (CaBP22 transcript levels; [9]) | seedlings with cell death (trypan blue staining) (Col-0 seedlings [4]) | suppression of Noco2 spore formation / resistance to Noco2 [2, 10] | suppression of Noco2 spore formation / resistance to Noco2 [2, 11] | further results
1 | O=C(O)C1CSC(c2ccccc2O)N1 (stereo not drawn) [CMP140, 2-(2-hydroxy-phenyl)-thiazolidine-4-carboxilic acid] | less efficient defense inducer compared to HTC | at least 100 uM | – | – | – | – | – | – | – | – | – | efficiency of GUS induction among HTC analogs [1]: most efficient HTC analog
2 | O=C(O)c1cc(Cl)nc(Cl)c1 [INA, reference compound] | – | – | full resistance | enhanced Arabidopsis root growth | not | – | – | – | – | – | – | –
3 | Nc1c(Cl)cc(Cl)cc1C(=O)O [DCA, 3-5-dicholoroanthranlilic acid, reference compound] | highest protection | 10 µM | full resistance | enhanced Arabidopsis root growth | strongly inhibited | induced an increase | not affected | not | 100% | induced resistance; also recorded: significantly suppresses | induced resistance; also recorded: significantly suppresses | disease resistance [3]: fast, strong and transient disease resistance; disease resistance (Pseudomonas syringae): fast, strong and transient disease resistance
4 | O=C(O)C1CSCN1 (stereo not drawn) [T4CA, 4-carboxy-4-thiazolidinyl, reference compound] | did not result in significant immunity | – | – | – | – | – | – | – | – | – | – | –
5 | O=C(O)C1CSC(c2cc(Br)ccc2O)N1 (stereo not drawn) [HTC, 2-(5-bromo-2-hydroxy-phenyl)-thiazolidine-4-carboxylic acid] | highest protection; also recorded: most potent of the tested analogs | 10 µM | – | enhanced the root length | reduced root growth; also recorded: strongly inhibited | induced an increase | blocked | not | 100% | able to do so; also recorded: significantly suppresses | did not observe significant reduction and not | change in root length ([5]; all analyzed time-points): significant increase in root length; root length relative to mock-treated plants ([5]; day 6): 136.1%; concentration activating CaBP22-333::GUS expression (as low as) ([1]; within 24 h, one week-old seedlings): 1 µM; fresh weight of shoots relative to mock-treated plants [6]: 128.5%; fresh weight of shoots relative to mock-treated plants (Col-0 seedlings [7]): ~120%; CaBP22 transcript accumulation (CaBP22 transcript levels; pad4-1 mutant): reduced; CaBP22 transcript accumulation (CaBP22 transcript levels; sid2-2 mutant): reduced; CaBP22 transcript accumulation (CaBP22 transcript levels; wrky72-2 mutant): full HTC-induced CaBP22 transcript accumulation; cell death (trypan blue staining) (Col-0 seedlings [4]; lower concentrations that resulted in reporter activation (1-100 μM)): No cell death; HTC-triggered immunity to Noco2 ([2]; 6 dpt): not detectable; HTC-triggered immunity to Noco2 ([2]; 3 days post treatment (dpt)): reduced; efficacy of s-HTC versus p-HTC in reducing Noco2 spore counts ([2]; 20, 50, 100, and 200 μM sprayed on Col-0 24 h prior to challenge): No significant difference; concentration giving significantly reduced numbers of Noco2 spores (as low as) ([2]; Col-0 sprayed prior to infection, spores 7 dpi): 10 µM; root length relative to control plates (Arabidopsis roots; 1 μM): up to 180%; reduction of length of roots (Arabidopsis roots; concentrations above 50 μM): ~80%
